± gives the standard deviation of the averaged measurements.
Legend:
MK-1775 = compound: C=CCn1c(=O)c2cnc(Nc3ccc(N4CCN(C)CC4)cc3)nc2n1-c1cccc(C(C)(C)O)n1 [MK-1775]; experiment: surviving fraction relative to DMSO-only wells; higher = less growth inhibition; settings: exposure time: 5 days
In short: (§1)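 Lines were retained only if, across three screens, replicate Pearson r was >0.7 and median Z' was >0.3. Viability was measured as CellTiter-Glo luminescence and reported as surviving fraction relative to the median of DMSO-only wells. Readings followed 10 minutes at room temperature, after log-phase tumour cells seeded at 250–500 per well in 384-well plates had been exposed, from 24 hours after seeding, continuously for five days to inhibitors at 0.5, 1, 5, 10, 50, 100, 500 and 1000 nM.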

AFIMOXIFENE = compound: CC/C(=C(\c1ccc(O)cc1)c1ccc(OCCN(C)C)cc1)c1ccccc1 [AFIMOXIFENE]; experiment: as above; settings: exposure time: 5 days
In short: as §1

Test System	surviving fraction (MK-1775; 0.5 nM)	surviving fraction (MK-1775; 1 nM)	surviving fraction (MK-1775; 5 nM)	surviving fraction (MK-1775; 10 nM)	surviving fraction (MK-1775; 50 nM)	surviving fraction (MK-1775; 100 nM)	surviving fraction (MK-1775; 500 nM)	surviving fraction (MK-1775; 1000 nM)	surviving fraction (AFIMOXIFENE; 0.5 nM)	surviving fraction (AFIMOXIFENE; 1 nM)	surviving fraction (AFIMOXIFENE; 5 nM)	surviving fraction (AFIMOXIFENE; 10 nM)	surviving fraction (AFIMOXIFENE; 50 nM)	surviving fraction (AFIMOXIFENE; 100 nM)	surviving fraction (AFIMOXIFENE; 500 nM)	surviving fraction (AFIMOXIFENE; 1000 nM)
MDAMB436 BREAST	0.978 ± 0.045	0.969 ± 0.028	0.948 ± 0.031	0.902 ± 0.081	0.79 ± 0.073	0.66 ± 0.023	0.312 ± 0.013	0.317 ± 0.021	0.962 ± 0.085	0.99 ± 0.11	0.965 ± 0.087	1.03 ± 0.21	1.03 ± 0.11	1.08 ± 0.13	1.01 ± 0.066	1 ± 0.063
MDAMB453 BREAST	1.09 ± 0.021	1.07 ± 0.034	1.13 ± 0.048	1.06 ± 0.052	1.14 ± 0.076	0.959 ± 0.1	0.214 ± 0.041	0.161 ± 0.021	1.09 ± 0.098	1.07 ± 0.07	1.11 ± 0.066	1.17 ± 0.16	1.1 ± 0.068	1.07 ± 0.029	1.07 ± 0.039	1.02 ± 0.026
MDAMB468 BREAST	1.06 ± 0.041	1.05 ± 0.049	1.07 ± 0.089	1.02 ± 0.043	1.12 ± 0.04	0.985 ± 0.029	0.259 ± 0.026	0.0773 ± 0.0029	1.01 ± 0.021	0.991 ± 0.034	1.06 ± 0.054	1.09 ± 0.02	1.12 ± 0.077	1.21 ± 0.046	1.14 ± 0.024	1.05 ± 0.0095
MFM223 BREAST	1.16 ± 0.057	1.14 ± 0.04	1.06 ± 0.067	1.14 ± 0.036	0.958 ± 0.045	0.545 ± 0.05	0.161 ± 0.0064	0.192 ± 0.02	1.28 ± 0.067	1.21 ± 0.043	1.19 ± 0.084	1.22 ± 0.13	1.2 ± 0.043		1.1 ± 0.062	0.932 ± 0.043
MG63 BONE	1.02 ± 0.033	0.999 ± 0.026	1.07 ± 0.027	1.056 ± 0.0072	1.06 ± 0.053	1 ± 0.068	0.244 ± 0.025	0.121 ± 0.0076	1.06 ± 0.04	1.04 ± 0.027	1.1 ± 0.048	1.07 ± 0.051	1.09 ± 0.05	1.05 ± 0.048	1.02 ± 0.036	1.02 ± 0.049
MHM BONE	0.981 ± 0.02	0.9753 ± 0.0067	1.04 ± 0.015	1.01 ± 0.033	1.02 ± 0.025	1.03 ± 0.025	0.638 ± 0.013	0.5597 ± 0.00058	1.02 ± 0.021	1.03 ± 0.05	1.09 ± 0.049	1.07 ± 0.033	1.06 ± 0.025	1.06 ± 0.027	1.01 ± 0.022	1.02 ± 0.028
NCIH441 LUNG	1.11 ± 0.085	1.04 ± 0.031	1.03 ± 0.029	0.986 ± 0.049	0.944 ± 0.065	0.794 ± 0.044	0.428 ± 0.057	0.369 ± 0.044	1.06 ± 0.11	1.07 ± 0.12	1.04 ± 0.11	1.12 ± 0.12	1.08 ± 0.11	1.14 ± 0.024	1.23 ± 0.03	1.03 ± 0.13
NOS1 BONE	0.939 ± 0.1	1.08 ± 0.028	0.945 ± 0.02	0.764 ± 0.039	0.209 ± 0.011	0.158 ± 0.02	0.223 ± 0.029	0.206 ± 0.036	1.05 ± 0.094	1.16 ± 0.28	1.18 ± 0.08	1.27 ± 0.12	1.4 ± 0.15	1.21 ± 0.076	1.08 ± 0.072	0.973 ± 0.19
NY BONE	1.04 ± 0.056	1.01 ± 0.014	1.1 ± 0.017	1.03 ± 0.013	0.638 ± 0.04	0.254 ± 0.016	0.113 ± 0.0076	0.0633 ± 0.0021	1.03 ± 0.041	1.026 ± 0.0089	1.1 ± 0.023	1.08 ± 0.027	1.11 ± 0.055	1.082 ± 0.006	0.972 ± 0.0056	0.9223 ± 0.0081
OS25HAL BONE	0.9753 ± 0.0045	0.9973 ± 0.0092	1.03 ± 0.019	1.02 ± 0.025	0.973 ± 0.042	0.554 ± 0.026	0.0463 ± 0.0032	0.0417 ± 0.0025	1.02 ± 0.036	1.04 ± 0.029	1.04 ± 0.014	1.02 ± 0.051	1.18 ± 0.044	1.09 ± 0.021	1.04 ± 0.084	1.04 ± 0.043
OSHN BONE	1.06 ± 0.03	1.06 ± 0.026	1.08 ± 0.04	1.05 ± 0.039	1.08 ± 0.04	1.06 ± 0.046	0.143 ± 0.016	0.0503 ± 0.0025	1.09 ± 0.044	1.08 ± 0.023	1.1 ± 0.035	1.07 ± 0.034	1.12 ± 0.016	1.146 ± 0.0071	1.15 ± 0.016	1.1 ± 0.031
PCI30 HEADNECK	0.926 ± 0.1	0.937 ± 0.054	1.03 ± 0.036	1.05 ± 0.16	0.884 ± 0.069	0.745 ± 0.021	0.195 ± 0.02	0.137 ± 0.0085	1.09 ± 0.017	1.07 ± 0.062	1.07 ± 0.06	1.06 ± 0.023	1.12 ± 0.045	1.05 ± 0.022	0.99 ± 0.091	1.02 ± 0.032
RDES SOFT TISSUE	1.17 ± 0.088	1.09 ± 0.12	1.1 ± 0.077	1.08 ± 0.13	0.871 ± 0.3	1.15 ± 0.18	0.406 ± 0.055	0.187 ± 0.036	1.25 ± 0.09	1.16 ± 0.052	1.16 ± 0.034	1.14 ± 0.095	1.14 ± 0.14	1.15 ± 0.062	1.59 ± 0.34	0.955 ± 0.11
S68 BREAST	1.17 ± 0.41	1.18 ± 0.27	1.03 ± 0.11	0.848 ± 0.13	0.663 ± 0.093	0.329 ± 0.048	0.101 ± 0.008	0.0703 ± 0.011	0.947 ± 0.19	0.829 ± 0.24	1.08 ± 0.052	0.952 ± 0.18	1.39 ± 0.13	1.21 ± 0.11	0.916 ± 0.047	0.805 ± 0.065
SAOS2 BONE	1.1 ± 0.019	1.01 ± 0.057	1.05 ± 0.091	1.07 ± 0.055	0.887 ± 0.033	0.637 ± 0.027	0.176 ± 0.024	0.06 ± 0.0087	1.18 ± 0.064	1.14 ± 0.068	1.23 ± 0.051	1.18 ± 0.052	1.21 ± 0.034	1.2 ± 0.16	1.12 ± 0.14	0.985 ± 0.042
SCC003 HEADNECK	1.12 ± 0.07	1.08 ± 0.11	1.1 ± 0.12	1.11 ± 0.06	0.927 ± 0.026	0.874 ± 0.05	0.421 ± 0.08	0.247 ± 0.019	1.127 ± 0.0056	1.14 ± 0.015	1.1 ± 0.091	1.07 ± 0.057	1.13 ± 0.055	1.1 ± 0.091	1.151 ± 0.0068	1.11 ± 0.042
